Test results reported in US7183075B2, “Purified and isolated potassium-chloride cotransporter nucleic acids and polypeptides and therapeutic and screening methods using same” (Vanderbilt University, priority 2000, dated 2007).

Tests used:
mKCC4 = target: T1, mKCC4 (Mus musculus, UniProt Q9WVL3); test: 86Rb+ uptake (K+-Cl- cotransport) in Xenopus oocytes injected with mKCC4 cRNA; type: cell-based; conditions: 10 mM potassium salt of anion substitute vs 10 mM KCl reference; hypotonic
T1 construct: a full-length mKCC4 cDNA was used as a standard in the Xenopus expression vector pGEMHE; expressed in transfected cells; host or cells: Xenopus laevis oocytes injected with cRNA (pGEMHE, T7 transcript)
T1 sequence (Q9WVL3 1-1083 L71X/L155X/L467X/L586X/L639X/L1023X): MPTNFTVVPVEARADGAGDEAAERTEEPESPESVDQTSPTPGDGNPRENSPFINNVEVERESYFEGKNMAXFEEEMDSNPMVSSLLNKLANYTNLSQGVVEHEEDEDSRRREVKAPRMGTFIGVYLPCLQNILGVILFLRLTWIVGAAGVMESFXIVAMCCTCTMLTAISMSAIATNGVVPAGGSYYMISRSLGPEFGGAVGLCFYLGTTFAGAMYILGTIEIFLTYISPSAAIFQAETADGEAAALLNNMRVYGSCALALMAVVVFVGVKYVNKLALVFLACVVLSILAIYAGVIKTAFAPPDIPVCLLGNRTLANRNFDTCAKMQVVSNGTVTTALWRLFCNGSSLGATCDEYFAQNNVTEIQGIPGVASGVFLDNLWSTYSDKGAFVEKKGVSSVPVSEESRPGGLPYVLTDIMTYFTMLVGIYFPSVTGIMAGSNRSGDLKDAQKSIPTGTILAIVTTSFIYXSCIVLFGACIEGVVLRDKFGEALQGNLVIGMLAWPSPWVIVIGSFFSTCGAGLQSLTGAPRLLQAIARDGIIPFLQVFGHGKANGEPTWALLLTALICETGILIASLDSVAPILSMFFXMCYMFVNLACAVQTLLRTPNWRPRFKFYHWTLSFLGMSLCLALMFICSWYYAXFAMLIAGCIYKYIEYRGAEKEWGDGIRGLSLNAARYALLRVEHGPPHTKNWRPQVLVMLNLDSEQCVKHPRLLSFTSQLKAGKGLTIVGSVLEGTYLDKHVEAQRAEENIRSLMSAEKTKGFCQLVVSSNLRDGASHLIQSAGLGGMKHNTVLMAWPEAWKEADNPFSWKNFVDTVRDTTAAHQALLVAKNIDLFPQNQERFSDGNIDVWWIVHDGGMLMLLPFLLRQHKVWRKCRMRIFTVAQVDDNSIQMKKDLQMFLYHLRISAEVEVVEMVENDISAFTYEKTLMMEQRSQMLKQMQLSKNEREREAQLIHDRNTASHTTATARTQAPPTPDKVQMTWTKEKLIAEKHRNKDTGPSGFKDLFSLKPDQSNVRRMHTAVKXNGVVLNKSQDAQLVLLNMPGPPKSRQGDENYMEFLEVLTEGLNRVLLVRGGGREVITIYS
Description: Oocytes were surgically collected from anesthetized female Xenopus adults under 0.17% tricaine and incubated for 1 hour with vigorous shaking in frog Ringer ND96 (96 mM sodium chloride, 2 mM potassium chloride, 1.8 mM calcium chloride, 1.0 mM magnesium chloride, and 5 mM Hepes/Tris, pH 7.4) in the presence of 2 mg/ml collagenase B. Oocytes were then washed four times in ND96, manually defolliculated, and incubated overnight in ND96 at 18° C. On the next day, defolliculated stage V–VI oocytes were injected with 50 nl of water or a solution containing cRNA at a concentration of 0.25–0.5 μg/μl (25 ng/oocyte). Oocytes were incubated at 17–18° C. in ND96 (96 mM sodium chloride, 2 mM potassium chloride, 1.8 mM calcium chloride, 1.0 mM magnesium chloride, and 5 mM Hepes/Tris, pH 7.4), supplemented with 2.5 mM sodium pyruvate and 5 mg/100 ml gentamicin, for 3–4 days. The incubation medium was changed every 24 hours. On the day of the experiment, oocytes were switched to Cl^−-free ND96 (96 mM Na^+ Na^+ isethionate, 2 mM K^+ gluconate, 6 mM Ca^2+ gluconate, 1 mM Mg^2+ gluconate, 5 mM Hepes, 2.5 mM sodium pyruvate, 5 mg/100 ml gentamicin, pH 7.4) for 2 hours prior to the uptake assay.
For functional expression and in vitro translation, a full-length mKCC4 cDNA was used as a standard in the Xenopus expression vector pGEMHE (Liman et al. (1992) Neuron 9:861–871). The resulting construct contains nucleotides 55–3812 of mKCC4 (SEQ ID NO:13). For functional comparison with mKCC4, a full-length rabbit KCC1 cDNA was subcloned into pGEMHE. […] […] Transcription product integrity was confirmed on agarose gels, and concentration was determined by absorbance reading at 260 nm (DU 640 available from Beckman of Fullerton, Calif.).
K^+—Cl^− cotransport was assessed by measuring tracer ^86Rb^+ uptake (NEN® Life Science Products of Boston, Mass.) in experimental groups of at least 15 oocytes. […] All uptake solutions also contained 1.8 mM CaCl2, 1 mM MgCl2, 5 mM Hepes, pH 7.4, and were supplemented with 1 mM ouabain and […] ^86Rb^+. Isotonic conditions were generated by supplementing the same solutions with 3.5 g/100 ml sucrose to reach isosmolar conditions for oocytes (˜210 mOsm/kg). Ouabain was added to prevent ^86Rb^+ uptake via the Na^+—K^+-ATPase. The absence of extracellular Na^+ and the hypotonicity of the uptake medium prevented ^86Rb^+ uptake via the endogenous Na^+—K^+-2Cl^− cotransporter that is present in oocytes (Gamba et al. (1994) J Biol Chem 269:17713–17722).
All uptake assays were performed at 32° C. At the end of the uptake period, oocytes were washed five times in ice-cold uptake solution without isotope to remove extracellular fluid tracer. Oocytes were dissolved in 10% SDS, and tracer activity was determined for each oocyte by β-scintillation counting.
To determine the ion transport kinetics of KCC4 and KCC1, ^86Rb^+ uptake experiments were performed in variable concentrations of K^+ and Cl^−. […]

[1] = test system: human red cell K^+—Cl^− cotransport; conditions: ML-7; physiological osmolality; cited from earlier work
hKCC3a = target: T2, hKCC3a (Homo sapiens, UniProt Q9UHW9, L346X/L35X/L789X); test: 86Rb+ uptake (K+-Cl- cotransport) in Xenopus oocytes injected with hKCC3a cRNA; type: cell-based
T2 construct: A full-length hKCC3a construct has also been generated for functional expression; expressed in transfected cells; host or cells: Xenopus laevis oocytes injected with cRNA
T2 sequence (Q9UHW9 1-1150 L35X/L346X/L789X): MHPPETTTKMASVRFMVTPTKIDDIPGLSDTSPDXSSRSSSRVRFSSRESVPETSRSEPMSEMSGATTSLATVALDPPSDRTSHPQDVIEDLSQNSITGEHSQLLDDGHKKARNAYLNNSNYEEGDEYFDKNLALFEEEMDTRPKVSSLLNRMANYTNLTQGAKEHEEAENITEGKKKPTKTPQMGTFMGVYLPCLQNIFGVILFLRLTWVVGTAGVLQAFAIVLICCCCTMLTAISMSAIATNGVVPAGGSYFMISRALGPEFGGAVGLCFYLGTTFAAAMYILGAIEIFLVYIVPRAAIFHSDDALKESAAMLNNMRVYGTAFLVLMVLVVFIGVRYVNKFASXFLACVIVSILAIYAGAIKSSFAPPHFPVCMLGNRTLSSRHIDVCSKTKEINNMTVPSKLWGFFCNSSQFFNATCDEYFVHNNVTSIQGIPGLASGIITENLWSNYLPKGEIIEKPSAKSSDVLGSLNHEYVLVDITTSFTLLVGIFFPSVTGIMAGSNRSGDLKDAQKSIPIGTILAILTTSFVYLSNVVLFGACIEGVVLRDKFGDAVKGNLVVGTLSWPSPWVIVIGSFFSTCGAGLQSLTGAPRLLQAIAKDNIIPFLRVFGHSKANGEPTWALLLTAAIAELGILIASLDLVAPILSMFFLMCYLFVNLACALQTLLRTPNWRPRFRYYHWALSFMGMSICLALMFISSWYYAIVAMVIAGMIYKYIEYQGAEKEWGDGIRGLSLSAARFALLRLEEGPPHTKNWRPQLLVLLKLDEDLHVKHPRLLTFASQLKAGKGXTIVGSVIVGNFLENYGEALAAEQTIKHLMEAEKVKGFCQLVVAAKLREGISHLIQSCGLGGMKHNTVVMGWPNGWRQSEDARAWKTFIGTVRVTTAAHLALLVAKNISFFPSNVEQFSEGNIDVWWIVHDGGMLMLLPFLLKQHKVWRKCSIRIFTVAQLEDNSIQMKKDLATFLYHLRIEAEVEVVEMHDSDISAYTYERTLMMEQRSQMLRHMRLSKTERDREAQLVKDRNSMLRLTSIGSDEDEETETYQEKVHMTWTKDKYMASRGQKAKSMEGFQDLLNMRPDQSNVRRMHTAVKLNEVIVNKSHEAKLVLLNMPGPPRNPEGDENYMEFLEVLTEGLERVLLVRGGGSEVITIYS

[2] = test system: KCC2^+/− heterozygous and wild type mice; test: PTZ seizure induction in wild type and KCC2+/- mice; type: in vivo, mouse; conditions: daily 60 mg/kg PTZ
Description: A reduced threshold for induction of seizure activity was also observed in KCC2^+/− heterozygous mice. Seizures were induced in wild type and litter-matched KCC2^+/− mice by daily injections of 60 mg/kg pentylenetetrazole (PTZ), a blocker of the GABAA receptor. Animal behavior was observed during a one-hour interval following PTZ injection, and the severity of seizure induction was scored according to the following indicators: score=0, absence of seizure acitivity; score=1, ear and facial twitching; score=2, myoclonic body jerks; score=3, clonic forelimb convulsions […]; score=5, death. Mice assigned a score of 3, 4, or 5 were removed from the group. FIG. 34 summarizes the number of mice assigned a score of 1 or 2 as a function of time. A significant difference between wild type and KCC2^+/− heterozygous mice was observed, corresponding to an approximately 2-fold increase in the susceptibility of KCC2^+/− heterozygous mice to seizure activity.

## [Br-].[K+] [KBr]
mKCC4
  86Rb+ influx in the presence of other anions, percentage of KCC4 function: 58±9%

## O=P([O-])(O)O.[K+] [KH2PO4]
mKCC4
  86Rb+ influx in the presence of other anions, percentage of KCC4 function: 22±5.9%

## [I-].[K+] [KI]
mKCC4
  86Rb+ influx in the presence of other anions, percentage of KCC4 function: 17±3.8%

## N#C[S-].[K+] [KSCN]
mKCC4
  86Rb+ influx in the presence of other anions, percentage of KCC4 function: did not support transport

## O=S(=O)(c1cccc2c(I)cccc12)N1CCCNCC1 [ML-7]
[1]
  effect on human red cell K+-Cl- cotransport: modest activation
hKCC3a; 100 μM ML-7, 160 mOsm/kg
  K+-Cl- cotransport (86Rb+ uptake) by KCC3a in the presence of ML-7: 1698±298 pmol/oocyte/hour
hKCC3a; ML-7, 180 mOsm/kg
  effect on hKCC3a K+-Cl- cotransport: modest activation
hKCC3a; ML-7, isotonic conditions
  effect on K+-Cl- cotransport: no effect

## C1CCc2nnnn2CC1 [PTZ, pentylenetetrazole]
[2]; KCC2+/− heterozygous mice
  percentage of deaths in response to PTZ injection: Approximately 35%
[2]; wild type mice
  percentage of deaths in response to PTZ injection: < 5%

## O=C([O-])[C@H](O)[C@@H](O)[C@H](O)[C@H](O)CO.[K+] [potassium gluconate]
mKCC4
  86Rb+ influx in the presence of other anions, percentage of KCC4 function: did not support transport
